Reference: US10738007B2, “Amide compounds as kinase inhibitors, compositions and methods of treatment” (TRANSLATIONAL DRUG DEVELOPMENT, LLC, priority 2016, dated 2020)
pIC50: −log10 of the molar value. Read-outs that look alike come from different tables or passages of the source.

Key:
K562 cell line = assay: Cell viability assay ([…]-GLO), K562; format: cell-based; settings: Homo sapiens; K562 (does not express ITD-FLT3), 72 hours treatment
Summary of the method: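 Cells seeded 2.5×10^3-5×10^3/well, grown 24 h, then exposed to compounds for 72 h. Viability read as ATP luminescence (CellTiter-Glo-type) after 37° C incubation; % growth = test/vehicle ×100. IC50 from sigmoidal dose-response fit.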

[1] = Pharmacokinetic activity in mice; format: in vivo; settings: for AUC(0-t): read-out: AUC0-8
Description: Compounds were individually and accurately weighed out to produce a stock solution in Dimethyl-sulfoxide (DMSO) at a concentration of 2 mg/mL and stored at −20° C. From the stock solution, a working stock was prepared by diluting it in Methanol-Water 50:50 (v/v) at 20 μg/mL for calibration curve preparation and stored at 4° C. Standards used for quantitation and quality control samples (QCs) were prepared on the same day of sample processing using blank plasma obtained from non-treated mice. For each analyte, standards were prepared through serial dilutions of the working stock at concentrations of 0.1, 0.5, 1.0, 10, 50, 100, 500, and 1000 ng/mL; QCs were prepared at intermediate concentrations of 0.75, 7.5, 75, and 750 ng/mL. Plasma samples were stored at −80° C. until ready for analysis and then placed on ice for thawing. An aliquot of […] samples, standards, or QCs, were transferred into a 96-well extraction plate according to a pre-defined layout. An appropriate volume of Methanol-Formic Acid 99.9-0.1 containing internal standard (Verapamil at 25 ng/mL) was added to each well and the samples were extracted under vacuum. Eluent was then transferred into a LCMS plate for analysis using a suitable column for separation and MRM detection. Concentration of analytes was calculated based on the calibration curve and analyzed for pharmacokinetic parameters by using Non-compartmental analysis (NCA). Parameters such as Cmax, Tmax, half-life, AUC(0-last), AUC(0-∞), volume of distribution (Vss), and clearance (Cl/F) were reported.

ROCK1 = ROCK1 (Homo sapiens (Human), UniProt Q13464); assay: ROCK1 kinase inhibition assay (peptide phosphorylation, LABCHIP 3000); format: biochemical; settings: 5 μM ATP, 3 nM ROCK1, 3 hours at 25° C.
Description: The peptide is phosphorylated by the protein kinase ROCK1 or ROCK2. The ROCK1 or ROCK2 enzyme, substrate, and cofactors (ATP and Mg^2+) are combined in a well of a microtiter plate and incubated for 3 hours at 25° C. in the presence or absence of an inhibitor compound. At the end of the incubation, the reaction is quenched by the addition of an EDTA-containing buffer. The substrate and product are separated and quantified electrophoretically using the microfluidic-based LABCHIP® 3000 Drug Discovery System from Caliper Life Sciences (Hopkinton, Mass.).
The components of the assay mixture are:
10 μM Sodium Orthovanadate
10 LM Beta-Glycerophosphate
5 μM ATP (for ROCK1) or 7 μM ATP (for ROCK2)
3 nM ROCK1 or 2.5 nM ROCK2 enzyme
Substrate and product peptides present in each sample are separated electrophoretically using the LABCHIP® 3000 capillary electrophoresis instrument. […] Change in the relative fluorescence intensity of the substrate and product peaks is the parameter measured reflecting enzyme activity. Capillary electrophoregramms (RDA acquisition files) are analyzed using HTS Well Analyzer software (Caliper Life Sciences, Hopkinton, Mass.). The kinase activity in each sample is determined as the product to sum ratio (PSR): P/(S+P), where P is the peak height of the product peptide and S is the peak height of the substrate peptide. For each compound, enzyme activity is measured at various concentrations (12 concentrations of compound spaced by 3× dilution intervals). Negative control samples (0%-inhibition in the absence of inhibitor) and positive control samples (100%-inhibition in the presence of 20 mM EDTA) are assembled in replicates of four and are used to calculate %-inhibition values for each compound at each concentration. Percent inhibition (Pinh) is determined using the following equation: Pinh=(PSRO %−PSRinh)/(PSRO %−PSR100%)*100
where PSRinh is the product sum ratio in the presence of inhibitor, PSRO % is the average product sum ratio in the absence of inhibitor, and PSR100% is the average product sum ratio in 100%-inhibition control samples. The IC50 values of inhibitors are determined by fitting the inhibition curves (Pinh versus inhibitor concentration) by the 4-parameter sigmoidal dose-response model using XLfit 4 software (IBDS).

MV411 cell line = assay: Cell viability assay ([…]-GLO), MV411; format: cell-based; settings: for pIC50: Homo sapiens, MV4-11, MV411 (ITD-FLT3+), 72 hours treatment; for FLT3-ITD+ Selectivity (K562/MV411): ratio K562/MV411
Description: Cell viability in the presence of varying concentrations of the above listed compounds at different time points was used to assess cytotoxicity and the effect of the compounds on cell proliferation.
Cell viability was measured by the […] -GlO® cell viability assay from Promega (Madison, Wis.). The […] -GlO Luminescent Cell Viability Assay is a homogeneous method to determine the number of viable cells in culture based on quantitation of the ATP present, which signals the presence of metabolically active cells. Following treatment, […] -GlO® is added to treatment wells and incubated at 37° C. Luminescence values were measured at using a Molecular Devices Spectramax microplate reader.
Cells were grown to 70% confluency, trypsinized, counted, and seeded in 96 well flat-bottom plates at a final concentration of 2.5×10^3-5×10^3 cells/well (Day 0). Cells were allowed to incubate in growth media for 24 hours. Treatment with the test agents or standard agents began on Day 1 and continued for 72 hours. At the 72-hour time point, treatment containing media was removed.
For single agent and combination studies, data from each experiment was collected and expressed as % Cell Growth using the following calculation: % Cell Growth=(ftest/fvehicle)×100
Where ftest is the luminescence of the tested sample, and fvehicle is the luminescence of the vehicle in which the drug is dissolved. Dose response graphs and IC50 values were generated using Prism 6 software (GraphPad) using the following equation: Y=(Top−Bottom)/(1+10^((logIC50-X)−HillSlope))
Where X is the logarithm of the concentration and Y is the response. Y starts at the Bottom and goes to the Top with a sigmoid shape.
The experiments also evaluated the selectivity of the compounds for inhibiting growth of cancer cells carrying a mutation in the Flt3 gene. The MV411 cell line expresses the mutant allele of Flt3 with internal tandem duplications (ITD) of the gene.

ROCK2 = ROCK2 (Homo sapiens (Human), UniProt O75116); assay: ROCK2 kinase inhibition assay (peptide phosphorylation, LABCHIP 3000); format: biochemical; settings: 7 μM ATP, 2.5 nM ROCK2, 3 hours at 25° C.
ROCK2, sequence (O75116 whole entry, species assumed): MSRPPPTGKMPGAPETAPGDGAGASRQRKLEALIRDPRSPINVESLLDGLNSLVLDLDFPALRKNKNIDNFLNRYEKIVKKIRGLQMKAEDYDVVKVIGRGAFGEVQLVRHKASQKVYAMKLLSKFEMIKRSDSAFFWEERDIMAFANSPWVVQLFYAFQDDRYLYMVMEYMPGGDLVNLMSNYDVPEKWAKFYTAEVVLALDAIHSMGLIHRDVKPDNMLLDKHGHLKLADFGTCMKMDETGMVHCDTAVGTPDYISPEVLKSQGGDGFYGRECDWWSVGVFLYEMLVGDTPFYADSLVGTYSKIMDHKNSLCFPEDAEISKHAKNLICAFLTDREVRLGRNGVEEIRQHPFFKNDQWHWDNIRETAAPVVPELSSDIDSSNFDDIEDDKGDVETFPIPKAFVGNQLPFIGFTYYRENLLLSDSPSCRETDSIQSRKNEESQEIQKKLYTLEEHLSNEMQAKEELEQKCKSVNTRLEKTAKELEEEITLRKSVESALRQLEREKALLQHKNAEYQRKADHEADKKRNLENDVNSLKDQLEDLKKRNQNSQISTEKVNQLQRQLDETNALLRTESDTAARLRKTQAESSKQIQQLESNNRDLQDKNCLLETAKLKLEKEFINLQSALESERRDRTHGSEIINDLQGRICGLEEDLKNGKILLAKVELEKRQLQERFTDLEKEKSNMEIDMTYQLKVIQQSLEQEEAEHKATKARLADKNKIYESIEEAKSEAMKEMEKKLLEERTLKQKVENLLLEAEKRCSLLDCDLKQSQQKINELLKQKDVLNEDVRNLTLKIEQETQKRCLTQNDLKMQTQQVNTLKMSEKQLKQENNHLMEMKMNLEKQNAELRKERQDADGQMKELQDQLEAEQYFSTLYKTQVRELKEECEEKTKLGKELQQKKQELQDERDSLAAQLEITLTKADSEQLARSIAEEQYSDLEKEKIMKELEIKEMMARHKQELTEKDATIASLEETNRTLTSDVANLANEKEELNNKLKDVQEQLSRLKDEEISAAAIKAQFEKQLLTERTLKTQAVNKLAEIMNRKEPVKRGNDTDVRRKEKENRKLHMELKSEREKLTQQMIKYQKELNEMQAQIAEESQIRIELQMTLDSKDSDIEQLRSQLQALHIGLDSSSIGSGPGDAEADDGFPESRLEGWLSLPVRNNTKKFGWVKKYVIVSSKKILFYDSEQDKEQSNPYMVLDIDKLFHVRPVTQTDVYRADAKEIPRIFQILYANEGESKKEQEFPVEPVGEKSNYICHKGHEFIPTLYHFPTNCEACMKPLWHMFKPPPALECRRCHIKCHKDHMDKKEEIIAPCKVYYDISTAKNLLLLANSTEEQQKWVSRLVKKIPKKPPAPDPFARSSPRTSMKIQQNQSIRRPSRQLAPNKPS

ROCK1, sequence (Q13464 whole entry, species assumed): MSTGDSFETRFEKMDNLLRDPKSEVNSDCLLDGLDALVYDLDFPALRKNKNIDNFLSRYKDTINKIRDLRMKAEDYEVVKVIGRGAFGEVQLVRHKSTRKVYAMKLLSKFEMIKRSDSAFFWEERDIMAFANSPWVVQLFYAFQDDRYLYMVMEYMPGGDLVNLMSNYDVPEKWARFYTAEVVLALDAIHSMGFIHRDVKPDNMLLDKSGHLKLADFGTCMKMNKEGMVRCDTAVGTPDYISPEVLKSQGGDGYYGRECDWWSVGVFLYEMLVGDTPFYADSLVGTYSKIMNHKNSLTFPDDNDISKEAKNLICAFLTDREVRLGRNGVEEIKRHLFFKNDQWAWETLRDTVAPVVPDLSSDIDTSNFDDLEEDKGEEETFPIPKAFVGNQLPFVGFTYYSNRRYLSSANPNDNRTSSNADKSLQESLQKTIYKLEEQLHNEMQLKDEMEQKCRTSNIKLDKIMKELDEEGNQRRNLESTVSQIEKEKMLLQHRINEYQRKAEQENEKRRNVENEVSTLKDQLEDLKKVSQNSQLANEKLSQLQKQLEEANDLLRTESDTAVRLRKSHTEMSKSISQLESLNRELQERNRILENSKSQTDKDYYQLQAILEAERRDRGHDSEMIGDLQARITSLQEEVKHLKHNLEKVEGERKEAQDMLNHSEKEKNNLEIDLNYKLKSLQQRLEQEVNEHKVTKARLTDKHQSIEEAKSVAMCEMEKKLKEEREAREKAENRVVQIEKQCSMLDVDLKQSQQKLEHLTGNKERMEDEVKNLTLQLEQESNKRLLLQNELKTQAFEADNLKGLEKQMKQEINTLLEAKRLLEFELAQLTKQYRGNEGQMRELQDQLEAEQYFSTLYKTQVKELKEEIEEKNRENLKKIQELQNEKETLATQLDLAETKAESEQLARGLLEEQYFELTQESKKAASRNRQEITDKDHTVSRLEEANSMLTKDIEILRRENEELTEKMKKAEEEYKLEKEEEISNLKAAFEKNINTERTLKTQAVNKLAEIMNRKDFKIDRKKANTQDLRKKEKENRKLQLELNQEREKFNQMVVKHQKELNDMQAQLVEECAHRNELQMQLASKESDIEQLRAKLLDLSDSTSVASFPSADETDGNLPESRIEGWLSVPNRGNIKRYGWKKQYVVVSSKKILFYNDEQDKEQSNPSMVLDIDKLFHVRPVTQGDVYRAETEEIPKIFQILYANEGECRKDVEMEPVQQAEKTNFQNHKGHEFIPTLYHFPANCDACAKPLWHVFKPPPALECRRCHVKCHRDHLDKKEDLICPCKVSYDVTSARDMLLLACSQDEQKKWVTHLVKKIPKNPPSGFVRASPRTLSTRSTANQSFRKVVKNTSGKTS

| Compound | pIC50 (K562 cell line) | pIC50 (ROCK1) | pIC50 (MV411 cell line) | FLT3-ITD+ Selectivity (K562/MV411) (MV411 cell line) | pIC50 (ROCK2) | other results |
| --- | --- | --- | --- | --- | --- | --- |
| O=C(NC1CCCC1)c1cccc([C@@H](CO)NC(=O)c2ccc(-c3ccncc3)cc2)c1 [Compound 10] | 4.77 | 8.32 | 6.77 | 100 | 9.06 | AUC % Extrap ([1]; IV - 1 mg/kg): 0.39%; Cl/F obs ([1]; IV - 1 mg/kg): 2.83 mL/min/kg; R-sq ([1]; IV - 1 mg/kg): 0.90; AUC % Extrap ([1]; PO - 5 mg/kg): 0.09%; R-sq ([1]; PO - 5 mg/kg): 0.93; AUC(0-inf) ([1]; mouse, plasma, IV - 1 mg/kg): 5370 ng·h/mL; C0 ([1]; mouse, plasma, IV - 1 mg/kg): 7000 ng/mL; Cmax ([1]; mouse, plasma, IV - 1 mg/kg): 4180 ng/mL; Tmax ([1]; mouse, plasma, IV - 1 mg/kg): 0.25 h; half-life ([1]; mouse, plasma, IV - 1 mg/kg): 3.86 h; AUC(0-t) ([1]; mouse, plasma, IV - 1 mg/kg): 5350 ng·h/mL; Vd ([1]; mouse, plasma, IV - 1 mg/kg, read-out: Vss): 0.32 L/kg; AUC(0-inf) ([1]; mouse, plasma, PO - 5 mg/kg): 51500 ng·h/mL; CL/F ([1]; mouse, plasma, PO - 5 mg/kg): 1.5 mL/min/kg; Cmax ([1]; mouse, plasma, PO - 5 mg/kg): 13100 ng/mL; Tmax ([1]; mouse, plasma, PO - 5 mg/kg): 1 h; half-life ([1]; mouse, plasma, PO - 5 mg/kg): 2.32 h; bioavailability ([1]; mouse, plasma, PO - 5 mg/kg vs IV - 1 mg/kg): > 100%; AUC(0-t) ([1]; mouse, plasma, PO - 5 mg/kg): 51400 ng·h/mL; Vd/F ([1]; mouse, plasma, PO - 5 mg/kg, read-out: Vz/F obs): 0.3 L/kg |
| CCOc1cc(-c2cn[nH]c2)ccc1C(=O)N[C@H](C)c1cccc(C(=O)NC2CCCC2)c1 [Compound 103] | 5.10 | 8.82 | 6.85 | 59 | 9.28 | – |
| COCCOc1cc(-c2cn[nH]c2)ccc1C(=O)N[C@H](C)c1cccc(C(=O)NC2CCCC2)c1 [Compound 115] | 4.35 | 8.41 | 6.62 | 188 | 8.99 | – |
| CN1CCc2ccc(NC(=O)c3cccc(CNC(=O)c4ccc(-c5ccncc5)cc4)c3)cc2C1 [Compound B, reference compound] | 4.70 | 8.00 | 5.89 | 15 | 8.06 | – |
